Columns and labels:
Male Swiss mice [1] = assay: T-maze continuous alternation task (T-CAT) with oxybutynin and xanomeline; format: in vivo
Source text: Evaluation of Cognition with Oxybutynin and Xanomeline in the T-maze Alternation Task in Mice
The T-maze continuous alternation task (T-CAT) is useful as model for studying compounds with cognitive enhancing properties. The T-maze consists of 2 choice arms and 1 start arm mounted to a square center. Manual doors are provided to close specific arms during the force choice alternation task.
Mice were randomly assigned to one of the different experimental treatment groups. Each animal was identified by its group name, cage number, series (day) of experiment, and number (1 to 10) written with permanent ink on the tail.
The T-maze apparatus is made of gray Plexiglas with a main stem (55 cm long[…]10 cm wide[…]20 cm high) and two arms (30 cm long[…]10 cm wide[…]20 cm high) positioned at 90 degree angle relative to the main stem. A start box (15 cm long[…]10 cm wide) is separated from the main stem by a guillotine door. Horizontal doors are also provided to close specific arms during the force choice alternation task. […]
The percentage of alternation over the 14 free-choice trials was determined for each mouse and was used as an index of working memory performance. […]
Analysis of variance (ANOVA) was performed on the results. […] The drug-induced improvement of memory was calculated by setting the respective response of the saline/vehicle as 100% and that of the test group as 0% reversion. […]

Male Swiss mice [2] = assay: Antagonism of xanomeline-induced diarrhea in mice by oxybutynin (fecal pellet count); format: in vivo; conditions: oxybutynin i.p. 0.3 to 30 mg/kg, 30 minutes before xanomeline 30 mg/kg
Experimental: Male Swiss mice (4-6 weeks old), N=10 per treatment group were used.
Mice were placed individually in cages without any bedding materials. During the experiment the number of fecal pellets was counted at different time-points as outlined below:
T0: administration of oxybutinin.
T30 min: administration of vehicle or xanomeline.
T 30 min to T 2.5 h: counting of accumulated fecal pellets excreted.
T+2.5 h to T+4.5 h: counting of accumulated fecal pellets excreted.
The total number of fecal pellets for each mouse was counted over time. An analysis of variance (ANOVA) was performed on the results. Fisher's Protected Least Significant Difference was used for pairwise comparisons. The p value≤0.05 were considered significant. Grubbs' test (http//www at graphpad.com/quickcalcs/Grubbs1.cfm) was used to detect outliers for each parameter in each experimental group.

[3] = tested on: patients with Alzheimer disease; conditions: cited from earlier work
[4] = tested on: healthy volunteers and Alzheimer's patients; conditions: cited from earlier work
Male Swiss mice [5] = assay: Dose-response to xanomeline in a mouse model of diarrhea (fecal pellet count); format: in vivo; conditions: xanomeline i.p. 0.3 to 30 mg/kg
Source text: Study 1—Establishment of the Dose-Response to Xanomeline in a Mouse Model of Diarrhea.
Male Swiss mice (4-6 weeks old), N=10 per treatment group were used, and treated intra-peritoneally (i.p.) with either vehicle (vehicle group) or increasing doses of xanomeline, a representative muscarinic agonist. Mice were randomly assigned to one of two experimental groups (vehicle; or increasing doses of xanomeline). Each animal was identified by its group name, cage number, series (day) of experiment, and number (1 to 10) written with permanent ink on the tail.
Mice were placed individually in cages without any bedding materials. During the experiment the number of fecal pellets were counted at different time-points, starting one hour before the time of the administration of the test compound (T0), as outlined below:
T−1 h to T0: counting of the accumulated fecal pellets excreted.
T0: administration of the test compound.
T0 to T+2 h: counting of the accumulated fecal pellets excreted.
T+2 h to T+4 h: counting of the accumulated fecal pellets excreted.
The total number of fecal pellets for each mouse was counted over time. An analysis of variance (ANOVA) was performed on the results. Fisher's Protected Least Significant Difference was used for pairwise comparisons; p values≤0.05 were considered significant. […]

Compound	ability to perform the T-maze test after pretreatment (Male Swiss mice [1]; i.p. oxybutynin pretreatment 30 minutes before xanomeline)	antagonism of diarrhea induced by xanomeline (Male Swiss mice [2])	cognitive and behavioral symptoms of Alzheimer disease ([3]; compared to placebo, 6 months)	side effects (bradycardia, gastro-intestinal distress, excessive salivation, sweating) ([3]; patients with Alzheimer disease)	ability to perform the T-maze test at the higher dose (Male Swiss mice [1]; i.p. xanomeline, higher dose (dose that caused diarrhea))	discontinuation rate ([4]; Alzheimer's patient population)	dose tolerated by some individuals ([4]; oral, taken with food) [mg three times/day]	maximal tolerated dose ([4]; orally administered) [mg three times/day]	maximal tolerated dose per day ([4]; orally administered) [mg/day]	diarrhea (number of fecal pellets) (Male Swiss mice [5])
CCN(CC)CC#CCOC(=O)C(O)(c1ccccc1)C1CCCCC1 (stereo not shown) [oxybutynin, 4-diethylaminobut-2-ynyl 2-cyclohexyl-2-hydroxy-2-phenylethanoate]	restored the animals' ability to perform the T-maze test	dose-dependently antagonized the diarrhea induced by xanomeline								
CCCCCCOc1nsnc1C1=CCCN(C)C1 [xanomeline, 3-(4-hexyloxy-1,2,5-thiadiazol-3-yl)-1-methyl-5,6-dihydro-2H-pyridine]			significantly improve cognitive and behavioral symptoms of Alzheimer disease	dose-dependent unacceptable side effects	too sick to perform the test	higher than 50%	110	75	225	dose-dependently causes diarrhea
